Source: patent US20220133650A1, “COMBINATION THERAPY FOR TREATMENT OF BRAIN DISORDERS” (B. G. NEGEV TECHNOLOGIES AND APPLICATIONS LTD., AT …, priority 2019, published 2022)

What was measured:
exposed rat cortex [1] = assay: Seizure (4AP)-induced BBB dysfunction, fluorescent angiography permeability index; type: in vivo, Sprague-Dawley rats; settings: 4AP-induced seizures (SE), NaFlu tracer, mean±SEM
rat brain [2] = assay: T2-weighted MRI after photo-induced thrombotic stroke, relative lesion volume; type: in vivo; settings: 48 h following photothrombosis; osmotic pumps i.p.; memantine 40 mg/kg, losartan 60 mg/kg; mean±SEM
rat brain [3] = assay: Contrast enhanced T1-weighted MRI after photo-induced thrombotic stroke, relative BBB dysfunction volume; type: in vivo; settings: 48 h following photothrombosis; osmotic pumps i.p.; memantine 40 mg/kg, losartan 60 mg/kg; mean±SEM
exposed rat cortex [4] = assay: Agonist-induced vascular permeability to NaFlu, agonists added to ACSF with neuronal activity blocked; type: in vivo, Sprague-Dawley rats; settings: neuronal activity and synaptic transmission blocked, mean±SEM
[5] = 30 min after adding the agonist to ACSF
[6] = 10 min after adding the agonist to ACSF

| Compound | shift in PI (BBB permeability index) from baseline (exposed rat cortex [1]; 10 min from seizure onset) [%] | shift in PI (BBB permeability index) from baseline (exposed rat cortex [1]; 30 min from seizure onset) [%] | relative lesion volume (100*# lesion voxels/# brain voxels) (rat brain [2]) [%] | relative BBB dysfunction volume (100*# BBBD voxels/# brain voxels) (rat brain [3]) [%] | shift in vascular permeability to NaFlu (PI shift from pre-substance application) (exposed rat cortex [4]; [5]) [%] | shift in vascular permeability to NaFlu (PI shift from pre-substance application) (exposed rat cortex [4]; [6]) [%] |
| --- | --- | --- | --- | --- | --- | --- |
| N[C@H](CCCP(=O)(O)O)C(=O)O [AP5, D-(−)-2-amino-5-phosphonopentanoic acid] | −1.19±4.71 | 18.78±6.93 | – | – | – | – |
| CC12CC3CC(C)(C1)CC(N)(C3)C2 [memantine, 3,5-dimethyladamantan-1-amine] | 3.14±3.1 | 20.86±3.78 | 24.18±3.75 | 15.03±1.83 | – | – |
| TGF-β1: transforming growth factor beta 1, 10 ng/ml added to the ACSF | – | – | – | – | 15.3±7.62 | – |
| angiotensin II (DRVYIHPF; Angiotensin-2; UniProt P01019 25-32, looked up) [ATII, angiotensin II, agonist added to the ACSF, 70 μM] | – | – | – | – | −12.33±3.45 | −4.11±3.35 |
| bovine-serum albumin: bovine serum albumin, 0.2 mM added to the ACSF | – | – | – | – | −0.33±8.36 | −2.55±4.6 |
